Reference: US5972873A, “4-substituted-phenyl-boronic acids as enzyme stabilizers” (Novo Nordisk A/S, priority 1995, dated 1999)

Legend:
Savinase [1] = target: T1, Savinase (Lederbergia lenta, UniProt P29600); assay: Determination of Ki: inhibition of Savinase (SAAPFpNA substrate); format: biochemical; set-up: purchased Novo Nordisk A/S; details: 0.1M Tris-HCl pH 8.6, 25° C.
T1 sequence (P29600 1-269): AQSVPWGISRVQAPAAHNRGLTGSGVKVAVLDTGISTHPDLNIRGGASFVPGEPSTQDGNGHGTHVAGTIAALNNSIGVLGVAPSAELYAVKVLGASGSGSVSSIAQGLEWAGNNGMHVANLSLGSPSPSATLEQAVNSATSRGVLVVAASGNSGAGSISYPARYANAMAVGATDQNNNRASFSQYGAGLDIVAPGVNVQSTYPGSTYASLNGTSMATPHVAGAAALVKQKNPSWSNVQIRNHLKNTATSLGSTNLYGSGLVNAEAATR
From the text: b) Determination of Ki : The inhibition constant Ki may be determined by using standard methods, for reference see Keller et al, Biochem. Biophys. Res. Com. 176, 1991, pp.401-405; J. Bieth in Bayer-Symposium "Proteinase Inhibitors", pp. 463-469, Springer-Verlag, 1974 and Lone Kierstein Hansen in "Determination of Specific Activities of Selected Detergent Proteases using Protease Activity, Molecular Weights, Kinetic Parameters and Inhibition Kinetics", PhD-report, Novo Nordisk A/S and University of Copenhagen, 1991.
The inhibition constant Ki for the inhibition of Savinase™ (available from Novo Nordisk A/S) was determined using standard methods under the following conditions: […]
The initial rate of substrate hydrolysis was determined at nine substrate concentrations in the range of 0.01 to 2 mM using a Cobas Fara automated spectrophotometer. The kinetic parameters Vmax and Km were determined using ENZFITTER (a non-linear regression data analysis program).
kcat was calculated from the equation Vmax =kcat X [Eo ]. The concentration of active enzyme [Eo ] was determined by active site titration using tight-binding protein proteinase inhibitors. The inhibition constant Ki was calculated from plots of Km /kcat as a function of the concentration of inhibitor. The inhibitors were assumed to be 100% pure and the molar concentrations were determined using weighing numbers and molecular weights.

Savinase [2] = target: T1, Savinase; assay: Storage Stability Test in Liquid Detergent (Detergent base, US-type), Example 3; format: biochemical; set-up: purchased Novo Nordisk A/S; details: for Improvement Factor (IFI): relative to Boric Acid, US-type detergent, 1% w/w Savinase (14 KNPU/g), stabilizer 5 mmole/kg (boric acid 160 mmole/kg), 0, 3, 7 and 14 days at 30° C.
Description: (§1) a) Storage Stability Test in Liquid Detergent: Enzyme(s) and stabilizer are added to a liquid detergent formulation and stored at well defined conditions. The enzyme activity of each enzyme is determined as a function of time, e.g. after 0, 3, 7 and 14 days.
(§2) To calculate the inhibition efficiency from the storage stability date a reaction mechanism is proposed.
(§3) From these reactions three coupled differential equations are derived describing the deactivation of P, L and PI. The reaction rate constants are derived from storage stability data by the use of a parameter estimation method (Gauss-Newton with the Levenberg modification). The storage stability data give the concentration of (P+PI) and L as a function of time.
(§4) Reaction IV is excluded from the system to reduce the number of parameters thereby describing the stability of the inhibited enzyme by only one reaction rate constant (from equation V).
(§5) In all experiments there is a large surplus of inhibitor molecules compared to protease molecules, i.e. a constant concentration of inhibitor (corresponding to the added amount of inhibitor) is a reasonable assumption.
(§6) An improvement factor is thus derived: [formula] IFI measures the inhibition efficiency given by the inhibition constants KI from reaction III.
Phenyl boronic acid derivatives were also tested in storage stability tests in liquid detergents using the method described previously under the following conditions: […]

Savinase [3] = target: T1, Savinase; details: US-type detergent; 1% w/w Savinase (14 KNPU/g); 5 mmole/kg (boric acid 160 mmole/kg); 0, 2, 7 and 14 days at 30° C.
Description: as §1, §2, §3, §4, §5, §6

subtilisin = details: Keller et al, 1991; cited from earlier work
proteolytic enzymes = details: background statement; WO 92/19707 for aryl boronic acids; cited from earlier work
Savinase [4] = target: T1, Savinase; assay: Storage Stability Test in a Commercial Detergent (Omo Micro), Example 4; format: biochemical; set-up: purchased Novo Nordisk A/S; details: 1.33 mM stabilizer (boric acid 160 mM), 1% w/w Savinase (8 KNPU/g), 1% w/w Lipolase (100 KLU/g), 0, 7, 15, and 21 days at 40° C.
Description: An improvement factor is thus derived: [formula]
The inhibition effectiveness IFI of 4-formyl-phenyl-boronic acid was also found in a commercial detergent Omo Micro.
Omo Micro was bought in a Danish supermarket. The enzymes were inactivated at 90° C. (overnight).
The following dosages in the detergent were used:
4-Formyl-phenyl-boronic acid: 1.33 mM, or
Protease: 1% w/w Savinase (8 KNPU/g), and
Lipase: 1% w/w Lipolase (100 KLU/g).
Storage: 0, 7, 15, and 21 days at 40° C.

## CC(=O)Nc1cccc(B(O)O)c1 [acetamidophenyl boronic acid]
Savinase [1]
  Ki: 1000 µM
Savinase [2]
  Improvement Factor (IFI): 300

## O=C(O)c1ccc(B(O)O)cc1 [4-Carboxybenzeneboronic acid]
Savinase [3]
  IFI: 22

## OB(O)c1cc(Cl)cc(Cl)c1 [3,5-dichlorophenylboronic acid]
subtilisin
  capacity as subtilisin inhibitor: particularly effective

## OB(O)O [Boric acid]
Proteolytic enzymes
  inhibition of proteolytic enzymes: reversibly inhibit proteolytic enzymes

## O=Cc1cccc(B(O)O)c1 [3-formyl-phenyl-boronic acid]
Savinase [2]
  Improvement Factor (IFI): 230

## CB(O)O [methylboronic acid]
subtilisin
  capacity as subtilisin inhibitor: poorest inhibitor

## O=Cc1ccc(B(O)O)cc1 [4-formyl-phenyl-boronic acid, 4-Formyl-phenyl-boronic acid]
Savinase [1]
  Ki: 300 µM
Savinase [2]; calculated on molar basis
  storage stability properties versus 2-formyl-phenyl-boronic acid: at least 25 times better
  storage stability properties versus 3-formyl-phenyl-boronic acid: at least four times better
  storage stability properties versus acetamidophenyl boronic acid: at least three times better
Savinase [2]
  Improvement Factor (IFI): 1000
Savinase [4]
  inhibition effectiveness IFI: 2500

## O=Cc1ccccc1B(O)O [2-formyl-phenyl-boronic acid]
Savinase [2]
  Improvement Factor (IFI): 36
